# Laboratory results as given in PMC4323000 (Oncotarget, 2015).
# Where two headings read alike, the source gives them in different places.
# Legend:
# HEK293-ABCG2 cells = details: at 100 μM; cited from earlier work
# [1] = Pharmacokinetic study of MBL-II-141, CPT-11 and SN-38 (blood, liver, brain; LC-MS/MS)
# Description: In order to achieve possible cumulative effects, reiterated administrations (two or three) were carried out with a 4 h time interval between administrations. Blood samples were collected at either 1 h or 4 h after the last injection.
# Total blood samples were collected using dried heparinized syringes, avoiding modification of samples. Blood and plasma were stored at −80°C. […] Tissues were crushed using a dried cold system.
# Both assays were performed on a C18 column HypersilGold, (ThermoElectron), 3.0 μm, (100 mm × 2.1 mm i.d.). The mass spectrometry analysis was performed in positive ion mode with electrospray source. […] A volume of 50 μL of whole blood or tissue solution was introduced into a conic centrifuge and 50 μL of solution of the internal standard and 300 μL of cold acetonitrile were added. The sample was mixed and centrifuged for 10 min at 13000 g at 5°C. […] The residues were resuspended in 100 μL of mobile phase and 10 μL were injected into the HPLC device. […] When the concentration was over the upper standard concentration, a dilution of the sample was performed using blank whole blood or appropriate tissues. Peak area ratios of compound to the respective internal standard measured at each nominal concentration were used to construct weighted (1/concentration) least-square linear regression curves. […] Results in tissues were normalized to cellular protein content. Results in tissues were normalized to cellular protein content (C1600 Abott technology).
# HEK-pcDNA3.1 xenografts = assay: Chemosensitization study, just-established ABCG2-negative tumors
# Description: (§1) 4.10^6 HEK-pcDNA3.1 or HEK-ABCG2 cells were sub-cutaneously injected into one flank of each SCID mouse, in solution with 50% matrigel. After the apparition of most tumors, mice were randomly distributed into 4 groups of 20 animals (10 ABCG2 negative and 10 ABCG2-positive tumors). […] Two independent injections were carried out per mouse.
# (§2) Treatments were intraperitoneally administered three times a week until mice sacrifice. […] Finally, mice were sacrificed when the tumor diameter reached 17 mm.
# (§3) Growth models. Tumor growth curves were modeled with GraphPad© Software. Gaussian distribution models were obtained according to the equation Y = Amplitude*exp (−0.5*((X-Mean)/SD)^2). The amplitude was the height of the center of the distribution in Y units. Mean was the X value at the center of the distribution. SD was a measure of the width of the distribution, in the same units as X. Another model was applied for sum of two Gaussian distributions with Y = one + two (One = Amplitude 1*exp(−0.5*((X-Mean1)/SD1)^2) and Two = Amplitude 2*exp(−0.5*((X-Mean2)/SD2)^2)). Amplitudes were the heights of the center of the distribution in Y units. Means were the X values at the center of the two distributions. SDs were measures of the widths of the distributions, in the same units as X.
# (§4) Paired t-test. The statistical test used was the paired t-test. It was applied for all data of growth tumor experiments and pharmacokinetics data.
# ABCG2 [2] = details: cited from earlier work
# ABCG2 [3] = details: cited from earlier work; remark: listed apart in the source
# [4] = MBL-II-141 oral absorption study (force-feeding versus IP); assay type: in vivo, mouse
# Description: The availability of MBL-II-141 was evaluated by force-feeding (n = 4), and compared to intraperitoneal injection (n = 4). CD1 mice were treated with 10 mg/kg of MBL-II-141. After 4 h of treatment, total blood was collected from animals treated with heparin. Samples were stored at −80°C until quantification.
# Assay accuracy was in the range of 91–108%. […] Results in tissues were normalized to cellular protein content.
# HEK-ABCG2 xenografts = assay: Chemosensitization of just-established ABCG2-positive tumors
# Description: as §1, §2, §3, §4
# HEK293-pcDNA3.1 cells = details: at 100 μM; cited from earlier work
# HEK293 ABCG2 xenografts = assay: Chemosensitization of well-established (8 mm) ABCG2-positive tumors; details: for slope of tumor growth: solvents 61 ± 3
# Description: 1.10^6 HEK ABCG2 cells were sub-cutaneously injected into one flank of each SCID mouse, in solution with 30% matrigel. […] Each group contained 10 mice. The same protocol of treatment and follow-up were applied.
# Tumor growth curves were modeled with GraphPad© Software. Gaussian distribution models were obtained according to the equation Y = Amplitude*exp (−0.5*((X-Mean)/SD)^2). The amplitude was the height of the center of the distribution in Y units. Mean was the X value at the center of the distribution. SD was a measure of the width of the distribution, in the same units as X. Another model was applied for sum of two Gaussian distributions with Y = one + two (One = Amplitude 1*exp(−0.5*((X-Mean1)/SD1)^2) and Two = Amplitude 2*exp(−0.5*((X-Mean2)/SD2)^2)). Amplitudes were the heights of the center of the distribution in Y units. Means were the X values at the center of the two distributions. SDs were measures of the widths of the distributions, in the same units as X.
# The statistical test used was the paired t-test. It was applied for all data of growth tumor experiments and pharmacokinetics data.
# SCID mice = assay: MBL-II-141 tolerance assay; assay type: in vivo
# HEK293 cells = details: at 100 μM; cited from earlier work
# [5] = Solubility for experimental formulation; assay type: physicochemical
# Description: The experimental formulation of MBL-II-141 was determined according to its solubility properties.
# ABCC1 = details: mitoxantrone or calcein as substrates; cited from earlier work
# [6] = parameters: method as in PMID 23150210; details: P.O.; ref [25]; cited from earlier work
# [7] = test system: ABCG2-overexpressing tumors; details: cited from earlier work; for In vivo Impact on Tumor growth: ref per compound in Table 2
# [8] = oral; ref per compound in Table 2; cited from earlier work
# [9] = human; GF120918 oral; ref [13],[21],[35],[45]–[48] (GF120918), [26],[50],[51] (Telatinib); cited from earlier work
# [10] = MBL-II-141 10 mg/kg IP, SCID mice
# [11] = MBL-II-141 alone 10 mg/kg + PBS
# [12] = combination MBL-II-141 10 mg/kg + CPT-11 20 mg/kg
smiles,measurement,setting,value
"COc1ccc2[nH]cc(CCNC(=O)c3cc(=O)c4c(OCc5ccc(Br)cc5)cccc4o3)c2c1 [MBL-II-141, 5-(4-bromobenzyloxy)-2-(2-(5-methoxyindolyl)ethyl-1-carbonyl)-4H-chromen-4-one]",cell survival,HEK293-ABCG2 cells,60%
same,blood level after the third injection versus one or two injection(s),"[1]; 10 mg/kg IP, injections separated by 4 h, blood 1 h or 4 h after last injection",slight increase
same,"Brain/Plasma ratio, fold-change induced by the combination treatment",[1]; 30 min,1.1 fold-change
same,"Liver/Plasma ratio, fold-change induced by the combination treatment",[1]; 30 min,2.5 fold-change
same,"Brain/Plasma ratio, fold-change induced by the combination treatment",[1]; 60 min,0.3 fold-change
same,"Liver/Plasma ratio, fold-change induced by the combination treatment",[1]; 60 min,0.8 fold-change
same,"Brain/Plasma ratio, fold-change induced by the combination treatment",[1]; 120 min,0.4 fold-change
same,"Liver/Plasma ratio, fold-change induced by the combination treatment",[1]; 120 min,1.1 fold-change
same,"Brain/Plasma ratio, fold-change induced by the combination treatment",[1]; 240 min,3.0 fold-change
same,"Liver/Plasma ratio, fold-change induced by the combination treatment",[1]; 240 min,3.0 fold-change
same,level in total blood at 6 h,[1]; [10],below the detection limit
same,time of highest level in total blood,[1]; [10],0.5 h
same,distribution into the brain,"[1]; MBL-II-141 10 mg/kg IP, SCID mice, 10 mg/kg","low, but still detectable"
same,In vivo Impact on Pharmacokinetics,"[1]; of CPT-11, SCID mice",CPT-11: Yes
same,"Mean of differences in Brain levels, compound alone versus CPT-11 + MBL-II-141","[1]; paired t-test over time, P (two tailed): CPT-11 0.0416, MBL-II-141 0.1059",38.53
same,"Mean of differences in Blood levels, compound alone versus CPT-11 + MBL-II-141","[1]; paired t-test over time, P (two tailed): CPT-11 0.3616, SN-38 0.0299, MBL-II-141 0.1555",122.0
same,"Mean of differences in Liver levels, compound alone versus CPT-11 + MBL-II-141","[1]; paired t-test over time, P (two tailed): CPT-11 0.6878, SN-38 0.1727, MBL-II-141 0.1046",-39.78
same,"Mean of differences between tumor growth curves, vehicles versus MBL-II-141 alone","HEK-pcDNA3.1 xenografts; HEK-pcDNA3.1, paired t-test P (two tailed) 0.0006, 95% CI 171.0 to 512.9",342
same,effect on growth of ABCG2-negative tumors,HEK-pcDNA3.1 xenografts; [11],slight inhibitory effect
same,In vitro ABCG2 Specificity,ABCG2 [2]; MBL-II-141,Yes
same,type of ABCG2 inhibition towards mitoxantrone,ABCG2 [3],non-competitive
same,IC50,"ABCG2 [3]; read-out: IC50, inhibition of ABCG2 (mitoxantrone efflux), substrate mitoxantrone",110 nM
same,blood level at 4 h under force-feeding in comparison to IP route (lower),"[4]; 10 mg/kg, difference not significant",approximately 2 fold
same,"In vivo Toxicity, Acute","[4]; oral (force-feeding), mice",> 10 mg/kg oral
same,"Mean of differences between tumor growth curves, vehicles versus MBL-II-141 alone","HEK-ABCG2 xenografts; HEK-ABCG2, paired t-test P (two tailed) 0.015, 95% CI 16.93 to 138.1",77.51
same,ABCG2-positive tumors whose growth was completely blocked,"HEK-ABCG2 xenografts; MBL-II-141 10 mg/kg + CPT-11 20 mg/kg IP three times a week, freshly implanted tumors, SCID mice",90%
same,survival rate of mice bearing ABCG2-positive tumors,"HEK-ABCG2 xenografts; MBL-II-141 10 mg/kg + CPT-11 20 mg/kg, even 40 days after end of treatment",90%
same,inhibitory effect on growth of ABCG2-positive tumors,HEK-ABCG2 xenografts; [11],not observed
same,In vivo Impact on Tumor growth,"HEK-ABCG2 xenografts; with CPT-11, ABCG2-positive xenografts",Yes
same,cell survival,HEK293-pcDNA3.1 cells,75%
same,mice survival,HEK293 ABCG2 xenografts; [12],markedly increased
same,time at which tumors reached maximal size versus CPT-11 alone,HEK293 ABCG2 xenografts; [12],about two weeks later
same,slope of tumor growth,HEK293 ABCG2 xenografts; [12],41 ± 1 mm^3/day
same,"Mean of differences between tumor growth curves, Solvents versus MBL-II-141","HEK293 ABCG2 xenografts; paired t-test P (two tailed) < 0.0001, 95% CI 54.71 to 135.0",94.84
same,"Mean of differences between tumor growth curves, CPT-11 versus MBL-II-141 + CPT-11","HEK293 ABCG2 xenografts; paired t-test P (two tailed) < 0.0001, 95% CI 162.2 to 329.4",245.8
same,"Mean of differences between tumor growth curves, Solvents versus MBL-II-141 + CPT-11","HEK293 ABCG2 xenografts; paired t-test P (two tailed) < 0.0001, 95% CI 177.3 to 460.0",318.6
same,"Mean of differences between tumor growth curves, MBL-II-141 versus MBL-II-141 + CPT-11","HEK293 ABCG2 xenografts; paired t-test P (two tailed) < 0.0001, 95% CI 240.1 to 562.7",401.4
same,slope of tumor growth,HEK293 ABCG2 xenografts; single agent (MBL-II-141 10 mg/kg or CPT-11 20 mg/kg) three times a week,68 ± 3 mm^3/day
same,acute toxicity in pilot study,SCID mice; 10 mg/kg per mouse,no acute toxicity
same,finding in the peritoneal cavity,SCID mice; 50 mg/kg 3 times a week for 1 month,slight deposit
same,"macroscopic analysis of organs (brain, heart, lungs, kidneys, liver and spleen)","SCID mice; 10, 30 or 50 mg/kg with CPT-11 20 mg/kg",no apparent lesions
same,"In vivo Toxicity, Acute","SCID mice; I.P., mice",> 50 mg/kg I.P.
same,"behavior (physical activity, appearance)","SCID mice; IP 10, 30 or 50 mg/kg in combination with CPT-11 20 mg/kg",did not show any modification in behavior
same,tolerance,"SCID mice; at 50 mg/kg, preliminary data",well tolerated
same,complete blood count proportion,"SCID mice; regardless of the administered dose of MBL-II-141 (10, 30, 50 mg/kg)",unchanged
same,safety on reiterated administrations,SCID mice; reiterated administrations,without any associated animal death or loss of weight
same,cell death of HEK293 cells,HEK293 cells,less than 25%
same,maximal solubility in DMSO,[5],250 mg/mL
same,effect on ABCC1-mediated transport,ABCC1,without any effect
CNC(=O)c1cc(Oc2ccc(NC(=O)Nc3ccc(Cl)c(C(F)(F)F)c3)cc2)ccn1 [Sorafenib],In vitro ABCG2 Specificity,ABCG2 [2]; ref per compound in Table 2,No
same,"In vivo Toxicity, Chronic",[6],> 25 mg/kg P.O.
same,In vivo Impact on Tumor growth,[7],Yes
same,"In vivo Toxicity, Acute",[8],> 25 mg/kg oral
CNC(=O)c1cc(COc2nnc(Nc3ccc(Cl)cc3)c3ccoc23)ccn1 [Telatinib],In vitro ABCG2 Specificity,ABCG2 [2]; ref per compound in Table 2,No
same,"In vivo Toxicity, Chronic",[9],>1 500 mg (human)
same,In vivo Impact on Tumor growth,[7],Yes
same,effect on ABCG2-overexpressing tumors,"[7]; telatinib 15 mg/kg in combination with doxorubicin […], xenografted nude mouse model",significantly decrease the growth rate and tumor size
same,"In vivo Toxicity, Acute",[8],>15 mg/kg oral
